Source: US10294229B2, “Heteroaryl substituted aminopyridine compounds” (BRISTOL-MYERS SQUIBB COMPANY, priority 2015, dated 2019)

Columns and labels:
[1] = Caco-2 Permeability Assay; type: in vitro ADME; settings: human, Caco-2, test compound 3 μM
Summary of the method: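 Bidirectional permeability measured over 2 h at 37° C, compound dosed at 3 μM in the donor compartment (apical for absorptive, basolateral for secretive) with plain buffer as receiver.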

[2] = system: Human whole blood stimulated with a TLR2 agonist (lipoteichoic acid), IL-6 levels; assay: IRAK4 Whole Blood Assay; type: cell-based; settings: Homo sapiens, lipoteichoic acid 10 μg/mL
Summary of the method: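 ACD-A-anticoagulated human whole blood was preincubated with compounds for 60 min at 37 °C under 5% CO2. It was then stimulated with 10 μg/mL lipoteichoic acid (final) in RPMI for 5 h. IL-6 in plasma supernatants was measured by flow cytometry bead assay.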

IRAK4 = IRAK4 (Homo sapiens (Human), UniProt Q9NWZ3); assay: IRAK4 Inhibition Assay; type: biochemical; settings: ATP 500 μM; IRAK4 0.6 nM
Summary of the method: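 Mobility-shift readout: phosphorylated and unphosphorylated fluorescent peptide (1.5 μM) resolved by electrophoresis after a 60 min room-temperature reaction stopped with EDTA. Reaction holds 0.6 nM IRAK4, 500 μM ATP and 1.6% DMSO in HEPES pH 7.2/MgCl2/Brij 35/DTT buffer; percent inhibition set against vehicle and no-enzyme controls.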

IRAK4, sequence (Q9NWZ3 whole entry, species assumed): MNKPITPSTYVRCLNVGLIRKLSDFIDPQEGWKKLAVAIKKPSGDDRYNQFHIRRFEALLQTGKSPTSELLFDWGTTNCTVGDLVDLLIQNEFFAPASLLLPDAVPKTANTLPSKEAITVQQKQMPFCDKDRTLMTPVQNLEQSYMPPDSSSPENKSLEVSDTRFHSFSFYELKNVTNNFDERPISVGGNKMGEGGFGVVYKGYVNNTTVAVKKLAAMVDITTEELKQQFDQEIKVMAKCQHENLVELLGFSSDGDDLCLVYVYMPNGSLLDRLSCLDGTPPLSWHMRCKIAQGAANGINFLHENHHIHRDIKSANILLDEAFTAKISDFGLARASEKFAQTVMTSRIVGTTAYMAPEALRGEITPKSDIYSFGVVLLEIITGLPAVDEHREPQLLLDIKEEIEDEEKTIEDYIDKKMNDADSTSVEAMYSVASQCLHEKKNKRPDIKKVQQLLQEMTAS

| Papp at 2 h, 3 µM [1] [×10⁻⁶ cm/s] | EC50 [2] [nM] | IC50 (IRAK4) [nM] | Compound |
| --- | --- | --- | --- |
| 32.1 | 140 | 4 | CCCn1cc(-c2cnc(-n3cnc4cnc(N)nc43)cc2NC(C)C)nn1 [Example 62, 9-(4-(isopropylamino)-5-(1-propyl-1H-1,2,3-triazol-4-yl)pyridin-2-yl)-9H-purin-2-amine] |
| 5 | 340 | 1 | CC(C)Nc1cc(-n2ncc3cc(C#N)cnc32)ncc1-c1cn(CCC(C)(C)O)nn1 [Example 128, 1-(5-(1-(3-hydroxy-3-methylbutyl)-1H-1,2,3-triazol-4-yl)-4-(isopropylamino)pyridin-2-yl)-1H-pyrazolo[3,4-b]pyridine-5-carbonitrile] |
| 8 | 250 | 15 | CC(=O)N1CC[C@H]1c1cc(-c2cnc(-n3ncc4cc(C#N)cnc43)cc2NC(C)C)on1 [Example 427, (S)-1-(5-(3-(1-acetylazetidin-2-yl)isoxazol-5-yl)-4-(isopropylamino)pyridin-2-yl)-1H-pyrazolo[3,4-b]pyridine-5-carbonitrile] |
| 7.4 | 200 | 1 | CC(C)Nc1cc(-n2ncc3cc(C#N)cnc32)ncc1-c1cn(CCc2ccncc2)nn1 [Example 120, 1-(4-(isopropylamino)-5-(1-(2-(pyridin-4-yl)ethyl)-1H-1,2,3-triazol-4-yl)pyridin-2-yl)-1H-pyrazolo[3,4-b]pyridine-5-carbonitrile] |
| 28 | 380 | 4 | COC(=O)N1CC(c2cc(-c3cnc(-n4ncc5cc(C#N)cnc54)cc3NC(C)C)on2)C1 [Example 401, methyl 3-(5-(6-(5-cyano-1H-pyrazolo[3,4-b]pyridin-1-yl)-4-(isopropylamino)pyridin-3-yl)isoxazol-3-yl)azetidine-1-carboxylate] |
| 21.8 | 440 | 2 | CCN1CCOC[C@H]1c1cc(-c2cnc(-n3ncc4cc(C#N)cnc43)cc2NC(C)C)no1 [Example 431, (S)-1-(5-(5-(4-ethylmorpholin-3-yl)isoxazol-3-yl)-4-(isopropylamino)pyridin-2-yl)-1H-pyrazolo[3,4-b]pyridine-5-carbonitrile] |
| 30.2 | 310 | 14 | CCCNc1cc(-n2ncc3cc(C#N)cnc32)ncc1-n1cc(CCC(C)(C)O)nn1 [Example 389, 1-(5-(4-(3-hydroxy-3-methylbutyl)-1H-1,2,3-triazol-1-yl)-4-(propylamino)pyridin-2-yl)-1H-pyrazolo[3,4-b]pyridine-5-carbonitrile] |
| 4.1 | 490 | 3 | N#Cc1cnc2c(cnn2-c2cc(NC3CC3)c(-c3cn(CCO)nn3)cn2)c1 [Example 14, 1-(4-(cyclopropylamino)-5-(1-(2-hydroxyethyl)-1H-1,2,3-triazol-4-yl)pyridin-2-yl)-1H-pyrazolo[3,4-b]pyridine-5-carbonitrile] |
| 4.9 | 800 | 2 | CC(C)Nc1cc(-n2ncc3cc(C#N)c(N)nc32)ncc1-c1cn(C2CCCCC2)nn1 [Example 25, 6-amino-1-(5-(1-cyclohexyl-1H-1,2,3-triazol-4-yl)-4-(isopropylamino)pyridin-2-yl)-1H-pyrazolo[3,4-b]pyridine-5-carbonitrile] |
| < 1.5 | 240 | 7 | CC(C)(O)CCc1cn(-c2cnc(-n3ncc4cc(C#N)cnc43)cc2NC(CF)CF)nn1 [Example 377, 1-(4-((1,3-difluoropropan-2-yl)amino)-5-(4-(3-hydroxy-3-methylbutyl)-1H-1,2,3-triazol-1-yl)pyridin-2-yl)-1H-pyrazolo[3,4-b]pyridine-5-carbonitrile] |
| 4.7 | 1210 | 4 | CC(C)Nc1cc(-n2ncc3cc(C#N)cnc32)ncc1-c1cn(C2CCN(S(C)(=O)=O)CC2)nn1 [Example 196, 1-(4-(isopropylamino)-5-(1-(1-(methylsulfonyl)piperidin-4-yl)-1H-1,2,3-triazol-4-yl)pyridin-2-yl)-1H-pyrazolo[3,4-b]pyridine-5-carbonitrile] |
